From patent US12202866B2, “Therapeutic nanoconjugates and uses thereof” (UNIVERSITAT AUTÒNOMA DE BARCELONA (UAB), priority 2017, dated 2025)

Assays:
[1] = system: CXCR4^+ SW1417 CRC cells; assay: Internalization in CXCR4+ SW1417 CRC cells (flow cytometry, AMD3100 competition); type: cell-based, human; parameters: internalization measured by fluorescence emission using flow cytometry: dose or concentration left out as unconfirmed; details: 1 hour exposure
Procedure: CXCR4+ SW1417-luc CRC cells were cultured in modified Eagle's medium (Gibco, Rockville, MD) supplemented with 10% fetal calf serum (Gibco), and incubated at 37° C. and 5% CO2 in a humidified atmosphere. […] Fluorescence emission was measured with a D detector (530/30 nm band pass filter). To assess specificity for CXCR4 receptor-mediated internalization, competition studies were performed incubating CRC SW1417 cells with the CXCR4 antagonist AMD3100 (Sigma Aldrich) in a 1:10 (protein:antagonist) molar ratio for 1 h before exposure to the nanoconjugate at […] for an additional hour.
The cells were washed in phosphate-buffered saline (Sigma-Aldrich). Live cells were recorded by TCS-SP5 confocal laser scanning microscopy (Leica Microsystems, Heidelberg, Germany) using a Plan Apo 63×/1.4 (oil HC×PL APO lambda blue) objective as described. To determine particle localization inside the cell, stacks of 10-20 sections forevery 0.5 μm of cell thickness were collected and three-dimensional models were generated using Imaris version 6.1.0 software (Bitplane, Zurich, Switzerland).

[2] = system: CXCR4^+ cancer cells in SC SW1417 CRC tumor; assay: CXCR4+ cancer cell fraction in tumor tissue along time after single dose (anti-CXCR4 IHC); type: in vivo, mouse
Procedure: (§1) The SC SW1417 mouse model was used to determine the capacity of the nanoconjugate to induce DNA damage and apoptosis in tumor tissue, as well as the kinetics of CXCR4 expression in the membrane of tumor cells after treatment, regarding the fraction of CXCR4 expressing tumor cells and their intensity, since CXCR4^+ are the target cells for the nanoconjugate. […] The mice had been treated with equimolecular dosages of T22-GFP-H6, free oligo-FdU or Buffer, in which also were determined the levels of CXCR4 expression in tumor tissue at the different time points.

[3] = system: CXCR4^+ HeLa cells; assay: MTT cytotoxicity in CXCR4+ HeLa cells; type: cell-based, human; details: compared to free oligo-FdU
Procedure: Afterwards, a graphic displaying the linearized T22-GFP-H6-FdU dose-response trend line representation to compare cell viability for both compounds was constructed. Reduction of cell viability was also determined by optical microscope images of HeLa cells exposed to 1 μM […] for 48 h, as compared to T22-GFP-H6 or free FdU.

[4] = system: subcutaneous CXCR4^+ SW1417 CRC tumor; assay: Induction of DNA double strand breaks and apoptosis in tumor tissue, SC SW1417 model; type: in vivo, mouse
Procedure: as §1

[5] = system: SW1417 CRC cells; assay: MTT cytotoxicity in SW1417 CRC cells; type: cell-based, human; details: compared to free oligo-FdU, 72 h, 1.0-1,000 nM

Substance: T22-GFP-H6-FdU: nanoconjugate of T22-GFP-H6 protein nanoparticle covalently bound via maleimide linker to thiol-functionalized pentameric floxuridine oligonucleotide (oligo-FdU)
- internalization measured by fluorescence emission using flow cytometry [1]: internalized
- CXCR4^+ CCF remaining in tumor tissue ([2]; 24 h after single dose): reduced
- CXCR4^+ CCF remaining in tumor tissue ([2]; 48 h after single dose): undetectable
- cytotoxicity in HeLa cells [3]: higher cytotoxicity than free oligo-FdU
- number of apoptotic figures in tumor tissue (Hoechst nuclear condensation or defragmentation) ([4]; 24 h after injection): 13.9±0.5
- number of DSBs foci in tumors (anti-gH2AX IHC) ([4]; five hours after treatment): 22.8±1.4
- cytotoxicity measured by cell viability or phase-contrast microscopy [5]: significantly higher cytotoxicity than free oligo-FdU
